Reference: patent publication US6602826B1, “Heterocyclically substituted aromatic amino compounds with a herbicidal effect” (Bayer Aktiengesellschaft, priority 1997, dated 2003)

Columns and labels:
wheat = test: Pre-emergence test (crop tolerance); format: in vivo; settings: application rates between 250 and 750 g/ha, scored after three weeks vs untreated control
Protocol: (§1) Solvent: 5 parts by weight of acetone
(§2) Emulsifier: 1 part by weight of alkylaryl polyglycol ether
(§3) To prepare a suitable preparation of active compound, 1 part by weight of active compound is mixed with the stated amount of solvent, the stated amount of emulsifier is added, and the concentrate is diluted with water to the desired concentration.
(§4) Seeds of the test plants are sown in normal soil. After approx. 24 hours, the soil is sprayed with the preparation of active compound in such a way that the desired amounts of active compound are in each case applied per unit area. The concentration of the spray mixture is chosen in such a way that the desired amounts of active compound are in each case applied in 1,000 liters of water/ha.
(§5) After three weeks, the degree of damage to the plants is scored in % damage in comparison with the development of the untreated control.

Avena fatua = test: Pre-emergence test; format: in vivo; settings: application rates between 250 and 750 g/ha, scored after three weeks vs untreated control, 0% = no action, 100% = total destruction
Protocol: as §1, §2, §3, §4, §5

Lolium = test: Pre-emergence test; format: in vivo; settings: application rates between 250 and 750 g/ha, scored after three weeks vs untreated control
Protocol: as §1, §2, §3, §4, §5

Matricaria = test: Pre-emergence test; format: in vivo; settings: application rates between 250 and 750 g/ha, scored after three weeks vs untreated control
Protocol: as §1, §2, §3, §4, §5

Solanum = test: Pre-emergence test; format: in vivo; settings: application rates between 250 and 750 g/ha, scored after three weeks vs untreated control
Protocol: as §1, §2, §3, §4, §5

Abutilon = test: Post-emergence test; format: in vivo; settings: application rates of 15-750 g/ha, scored after three weeks vs untreated control
Protocol: as §1, §2, §3
(§6) Test plants which have a height of 5-15 cm are sprayed with the preparation of active compound in such a way that the desired amounts of active compound are in each case applied per unit area. The concentration of the spray mixture is chosen in such a way that the amounts of active compound desired in each case are applied in 1,000 liters of water/ha.
as §5

Galium = test: Post-emergence test; format: in vivo; settings: application rates of 15-750 g/ha, scored after three weeks vs untreated control
Protocol: as §1, §2, §3, §6, §5

Sinapis = test: Post-emergence test; format: in vivo; settings: application rates of 15-750 g/ha, scored after three weeks vs untreated control
Protocol: as §1, §2, §3, §6, §5

Cn1c(C(F)(F)F)cc(=O)n(-c2ccc(Cl)cc2NC(=O)C2CC2)c1=O [Example 19]
0%: degree of damage to the plants, wheat (crop plant, tolerated well) (wheat)
100%: degree of damage to the plants, Avena fatua (Avena fatua) | degree of damage to the plants, Lolium (Lolium) | degree of damage to the plants, Matricaria (Matricaria) | degree of damage to the plants, Solanum (Solanum) | degree of damage to the plants, Abutilon (Abutilon) | degree of damage to the plants, Galium (Galium) | degree of damage to the plants, Sinapis (Sinapis)

Cn1c(C(F)(F)F)cc(=O)n(-c2cc(Cl)ccc2NC(=O)C(C)(C)C)c1=O
267 °C: melting point

Cn1c(C(F)(F)F)cc(=O)n(-c2ccc(Cl)cc2NC(=O)c2ccc(Cl)cc2)c1=O [Example 23]
0%: degree of damage to the plants, wheat (crop plant, tolerated well) (wheat)
100%: degree of damage to the plants, Avena fatua (Avena fatua) | degree of damage to the plants, Lolium (Lolium) | degree of damage to the plants, Matricaria (Matricaria) | degree of damage to the plants, Solanum (Solanum) | degree of damage to the plants, Abutilon (Abutilon) | degree of damage to the plants, Galium (Galium) | degree of damage to the plants, Sinapis (Sinapis)

CC(=O)Nc1cc(Cl)ccc1-n1c(=O)cc(C(F)(F)F)n(C)c1=O [Example 20]
100%: degree of damage to the plants, Avena fatua (Avena fatua) | degree of damage to the plants, Lolium (Lolium) | degree of damage to the plants, Matricaria (Matricaria) | degree of damage to the plants, Solanum (Solanum) | degree of damage to the plants, Abutilon (Abutilon) | degree of damage to the plants, Galium (Galium) | degree of damage to the plants, Sinapis (Sinapis)
0%: degree of damage to the plants, wheat (crop plant, tolerated well) (wheat)

CC(C)(C)C(=O)Nc1ccc(Cl)cc1-n1c(=O)cc(C(F)(F)F)[nH]c1=O
276 °C: melting point

Cn1c(C(F)(F)F)cc(=O)n(-c2ccc(Cl)cc2NC(=O)C(C)(C)C)c1=O [Example 18]
0%: degree of damage to the plants, wheat (crop plant, tolerated well) (wheat)
100%: degree of damage to the plants, Avena fatua (Avena fatua) | degree of damage to the plants, Lolium (Lolium) | degree of damage to the plants, Matricaria (Matricaria) | degree of damage to the plants, Solanum (Solanum) | degree of damage to the plants, Abutilon (Abutilon) | degree of damage to the plants, Galium (Galium) | degree of damage to the plants, Sinapis (Sinapis)

CCNC(=S)Nc1ccccc1-n1c(=O)n(C2CC2)c(=O)n1C [Example 102]
0%: degree of damage to the plants, wheat (crop plant, tolerated well) (wheat)
100%: degree of damage to the plants, Avena fatua (Avena fatua) | degree of damage to the plants, Lolium (Lolium) | degree of damage to the plants, Matricaria (Matricaria) | degree of damage to the plants, Solanum (Solanum) | degree of damage to the plants, Abutilon (Abutilon) | degree of damage to the plants, Galium (Galium) | degree of damage to the plants, Sinapis (Sinapis)

CC(C)C(=O)Nc1cc(Cl)ccc1-n1c(=O)cc(C(F)(F)F)n(C)c1=O [Example 24]
0%: degree of damage to the plants, wheat (crop plant, tolerated well) (wheat)
100%: degree of damage to the plants, Avena fatua (Avena fatua) | degree of damage to the plants, Lolium (Lolium) | degree of damage to the plants, Matricaria (Matricaria) | degree of damage to the plants, Solanum (Solanum) | degree of damage to the plants, Abutilon (Abutilon) | degree of damage to the plants, Galium (Galium) | degree of damage to the plants, Sinapis (Sinapis)
